Data: the NIST ThermoML archive (doi:10.1016/j.jct.2017.09.027)
Numbers after ± are expanded uncertainties.

Conditions: 298.15 K; 100 kPa; Liquid; Vibrating tube method

Structure (SMILES) | mass density
C1CCCCCCC1 [cyclooctane] | 831.61 ± 2 kg/m3
CCCCCCCCC [nonane] | 713.93 ± 1.7 kg/m3
N#CCc1ccccc1 [benzeneacetonitrile] | 1012.89 ± 2.6 kg/m3
CCCCCCC [heptane] | 679.71 ± 1.6 kg/m3
CC(C)CC(C)(C)C [2,2,4-trimethylpentane] | 687.32 ± 1.7 kg/m3
CCCCCCCC [octane] | 698.71 ± 1.7 kg/m3
N#CCCc1ccccc1 [3-phenylpropanenitrile] | 996.44 ± 2.4 kg/m3
